{"source": "paper PMC2892903", "about": "(Journal of agricultural and food chemistry, 2010)", "experiment": "Plasma pharmacokinetics", "format": "in vivo, Sprague-Dawley rats", "settings": "rat plasma, any confection treatment (CDK, CHS, CMP)", "data": [{"smiles": "Oc1cc(O)c2c(c1)O[C@H](c1ccc(O)c(O)c1)[C@H](O)C2", "note": "(racemic) [(±)-EC, (−)-epicatechin]", "values": [{"measurement": "Detection in plasma (HPLC-MS)", "value": "minor component in blood"}]}, {"smiles": "Oc1cc(O)c2c(c1)OC(c1ccc(O)c(O)c1)C(O)C2", "note": "(racemic) [(±)-C, (±)-catechin]", "values": [{"measurement": "Detection in plasma (HPLC-MS)", "value": "No intact (±)-C, (±)-C/EC sulfated metabolites or unconjugated O-Me-(±)-C/EC metabolites were detected in the plasma"}]}]}
